The experiment concerns the target NR2A-containing NMDA receptor (NR2A subunit) (Rattus norvegicus, UniProt Q00959). It counts as cell-based.

The structures appear in SMILES notation.

NR2A-containing NMDA receptor (NR2A subunit), sequence (Q00959 23-1464, other chains not shown): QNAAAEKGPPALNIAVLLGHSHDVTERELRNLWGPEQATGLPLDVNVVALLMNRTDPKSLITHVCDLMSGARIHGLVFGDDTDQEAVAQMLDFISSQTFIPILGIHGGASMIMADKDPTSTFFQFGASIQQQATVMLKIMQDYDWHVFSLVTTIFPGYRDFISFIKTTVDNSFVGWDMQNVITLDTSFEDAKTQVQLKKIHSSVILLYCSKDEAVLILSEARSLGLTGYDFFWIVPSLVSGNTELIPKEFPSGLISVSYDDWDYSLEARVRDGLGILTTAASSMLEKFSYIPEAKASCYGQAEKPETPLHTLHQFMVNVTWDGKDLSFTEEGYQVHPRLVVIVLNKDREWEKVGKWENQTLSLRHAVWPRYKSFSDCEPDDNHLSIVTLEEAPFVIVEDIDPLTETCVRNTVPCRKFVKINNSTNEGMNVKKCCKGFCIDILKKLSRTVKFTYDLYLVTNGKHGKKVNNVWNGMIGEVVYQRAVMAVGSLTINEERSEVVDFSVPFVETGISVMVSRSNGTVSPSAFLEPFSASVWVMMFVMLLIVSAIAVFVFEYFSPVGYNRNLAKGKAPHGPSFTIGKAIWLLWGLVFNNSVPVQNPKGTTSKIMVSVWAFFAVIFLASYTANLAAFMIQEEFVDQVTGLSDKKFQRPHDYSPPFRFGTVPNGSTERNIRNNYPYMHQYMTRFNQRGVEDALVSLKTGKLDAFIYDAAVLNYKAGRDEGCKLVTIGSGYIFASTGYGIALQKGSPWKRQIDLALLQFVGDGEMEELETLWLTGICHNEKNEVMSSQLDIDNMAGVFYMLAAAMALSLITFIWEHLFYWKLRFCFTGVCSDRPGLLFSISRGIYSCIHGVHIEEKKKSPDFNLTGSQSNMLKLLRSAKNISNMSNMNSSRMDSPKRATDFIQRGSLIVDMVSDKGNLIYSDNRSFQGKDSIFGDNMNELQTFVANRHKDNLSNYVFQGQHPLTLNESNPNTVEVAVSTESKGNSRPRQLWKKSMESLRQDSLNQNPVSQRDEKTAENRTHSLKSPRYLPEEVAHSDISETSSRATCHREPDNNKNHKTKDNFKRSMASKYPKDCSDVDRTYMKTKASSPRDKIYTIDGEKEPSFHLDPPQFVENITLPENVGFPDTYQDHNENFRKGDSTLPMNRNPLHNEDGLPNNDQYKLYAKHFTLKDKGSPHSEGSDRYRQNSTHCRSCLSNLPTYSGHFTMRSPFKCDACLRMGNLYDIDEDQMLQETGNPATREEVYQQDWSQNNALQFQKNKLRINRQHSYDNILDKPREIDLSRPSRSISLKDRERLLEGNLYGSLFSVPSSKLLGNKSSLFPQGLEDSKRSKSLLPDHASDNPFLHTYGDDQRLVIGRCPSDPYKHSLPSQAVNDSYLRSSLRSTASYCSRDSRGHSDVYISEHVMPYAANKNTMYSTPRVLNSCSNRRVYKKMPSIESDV

For `C[C@H](NC(c1cccc2[nH]c(=O)c(=O)[nH]c12)P(=O)(O)O)c1ccc(Br)cc1` (stereo partly drawn) [PEAQX, ({[(1S)-1-(4-bromophenyl)ethyl]amino}-(2,3-dioxo-1,4-dihydroquinoxalin-5-yl)methyl)phosphonic acid], inhibition was half-maximal at 130 ± 40 nM (IC50).
